Experimental data taken from PubChem BioAssay (NCI).
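96-well plates; 48 h exposure; 5 concentrations. Endpoints by linear interpolation between flanking doses. Not reached: highest tested concentration assigned. GI50 marks 50% less growth. TGI: concentration producing complete growth inhibition.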

Legend:
Experiment in all cases: DTP human tumour cell line panel, 48 h
HL-60(TB) leukemia = test system: HL-60(TB) leukemia
M14 melanoma = test system: M14 melanoma
NCI-H23 lung = test system: NCI-H23 lung
NCI-H460 lung = test system: NCI-H460 lung
OVCAR-4 ovarian = test system: OVCAR-4 ovarian
SK-MEL-28 melanoma = test system: SK-MEL-28 melanoma
SK-OV-3 ovarian = test system: SK-OV-3 ovarian
SR leukemia = test system: SR leukemia
TK-10 renal = test system: TK-10 renal
RXF 393 renal = test system: RXF 393 renal

| Structure (SMILES) | TGI (HL-60(TB) leukemia) | TGI (M14 melanoma) | TGI (NCI-H23 lung) | TGI (NCI-H460 lung) | TGI (OVCAR-4 ovarian) | TGI (SK-MEL-28 melanoma) | TGI (SK-OV-3 ovarian) | TGI (SR leukemia) | TGI (TK-10 renal) | GI50 (HL-60(TB) leukemia) | GI50 (NCI-H460 lung) | TGI (RXF 393 renal) | GI50 (M14 melanoma) | GI50 (NCI-H23 lung) | GI50 (OVCAR-4 ovarian) | GI50 (RXF 393 renal) | GI50 (SK-MEL-28 melanoma) | GI50 (SK-OV-3 ovarian) | GI50 (TK-10 renal) | GI50 (SR leukemia) |
| --- | --- | --- | --- | --- | --- | --- | --- | --- | --- | --- | --- | --- | --- | --- | --- | --- | --- | --- | --- | --- |
| Cc1ccc(S(=O)(=O)N/N=C(\c2nc3ccc([N+](=O)[O-])cc3[nH]c2=O)C(O)c2ccccc2Cl)cc1 (centres undefined) | > 100 µM | > 100 µM | > 100 µM | > 100 µM | > 100 µM | > 100 µM | > 100 µM | > 100 µM | > 100 µM | – | – | – | – | – | – | – | – | – | – | – |
| COc1ccccc1-c1cc(=O)c2ccc(C)nc2[nH]1 | > 100 µM | > 100 µM | > 100 µM | > 100 µM | > 100 µM | > 100 µM | > 100 µM | – | > 100 µM | 73.8 µM | 98.7 µM | > 100 µM | – | – | – | – | – | – | – | – |
| CC1(c2ccccc2)CC(c2ccccc2)=NO1 (centres undefined) | > 100 µM | > 100 µM | > 100 µM | > 100 µM | > 100 µM | > 100 µM | > 100 µM | > 100 µM | > 100 µM | – | – | – | – | – | – | – | – | – | – | – |
| CC(C)c1ccccc1NC(=O)/C(Cl)=C1/Sc2ccccc2NC1=O | 52.6 µM | > 100 µM | 70.8 µM | > 100 µM | > 100 µM | > 100 µM | 66.6 µM | – | > 100 µM | – | – | 49.6 µM | – | – | – | – | – | – | – | – |
| CCOC(=O)/C(=C/c1cccc(OC)c1)N(CC)CC | > 100 µM | > 100 µM | > 100 µM | – | > 100 µM | > 100 µM | > 100 µM | > 100 µM | > 100 µM | – | – | – | – | – | – | – | – | – | – | – |
| O=C(NC12CC3CC(CC(C3)C1)C2)C(=O)c1c[nH]c2ccc(Cl)cc12 | > 100 µM | > 100 µM | > 100 µM | > 100 µM | 56 µM | > 100 µM | > 100 µM | > 100 µM | – | – | – | – | – | – | – | – | – | – | – | – |
| C=CCSc1nc2ccccc2c(=O)n1Cc1ccco1 | – | > 100 µM | > 100 µM | > 100 µM | > 100 µM | > 100 µM | > 100 µM | > 100 µM | > 100 µM | – | – | > 100 µM | – | – | – | – | – | – | – | – |
| O=c1c(Cl)c(Cl)cnn1CCc1ccncc1 | 87.1 µM | 30.7 µM | 34.1 µM | 37.8 µM | 33 µM | 30.7 µM | – | 57.2 µM | > 100 µM | – | – | 42.2 µM | – | – | – | – | – | – | – | – |
| CC1CCCc2c1nn(C(=O)/C=C(\N)c1ccccc1)c2N (centres undefined) | 44.3 µM | > 100 µM | 92.9 µM | > 100 µM | > 100 µM | > 100 µM | > 100 µM | – | > 100 µM | 5.96 µM | 4.23 µM | > 100 µM | 12.3 µM | 5.5 µM | 12.8 µM | 31.3 µM | 17.9 µM | 14.5 µM | 28.9 µM | – |
| CN(C)Cc1c[nH]c2c(NCCN)c3c(c(NCCN)c12)C(=O)c1ccccc1C3=O | – | 16.9 µM | 8.99 µM | 26.8 µM | 29.6 µM | 23.3 µM | 24.1 µM | > 100 µM | 9.49 µM | – | 8.04 µM | 18.1 µM | 3.51 µM | 2.22 µM | 8.07 µM | 6.32 µM | 8.8 µM | 8.67 µM | 3.25 µM | – |
| OC(CN1CC1)C(O)CN1CC1 (centres undefined) | > 50 µg/mL | > 50 µg/mL | > 50 µg/mL | > 50 µg/mL | > 50 µg/mL | > 50 µg/mL | – | > 50 µg/mL | > 50 µg/mL | > 50 µg/mL | > 50 µg/mL | > 50 µg/mL | > 50 µg/mL | > 50 µg/mL | > 50 µg/mL | > 50 µg/mL | > 50 µg/mL | – | > 50 µg/mL | > 50 µg/mL |
| Cn1c2ccccc2c2c(=O)c3ccccc3[nH]c21 | > 100 µM | – | > 100 µM | > 100 µM | – | > 100 µM | – | > 100 µM | > 100 µM | 70.6 µM | 32.4 µM | > 100 µM | – | 30.5 µM | – | 54 µM | > 100 µM | – | 42.4 µM | > 100 µM |
| CNC(SC)=C1C(=O)OC(C)(C)OC1=O | > 100 µM | > 100 µM | > 100 µM | > 100 µM | – | > 100 µM | > 100 µM | > 100 µM | > 100 µM | – | – | > 100 µM | – | – | – | – | – | – | – | – |
| CNC(=O)c1cc2c(Oc3ccc(NC(=O)C4(C(=O)Nc5ccc(F)cc5)CC4)cc3)ccnc2cc1OC | 6.63 µM | 11.2 µM | > 100 µM | > 100 µM | > 100 µM | > 100 µM | 9.33 µM | 5.99 µM | – | 2.63 µM | 3.88 µM | 3.53 µM | 2.45 µM | 2.17 µM | 3.55 µM | 1.58 µM | 3.68 µM | 2.94 µM | – | 2.05 µM |
| CCN(CC)CCNC(=O)c1cn2ncnc(Oc3ccc(NC(=O)Nc4ccc(Cl)c(C(F)(F)F)c4)c(F)c3)c2c1C | – | 3.24 µM | 3.17 µM | 3.87 µM | 3.36 µM | 2.79 µM | 3.26 µM | 1.09 µM | 4.04 µM | – | 1.99 µM | 3.35 µM | 1.58 µM | 1.62 µM | 1.74 µM | 1.8 µM | 1.47 µM | 1.66 µM | 2.38 µM | 0.343 µM |
| CC(=O)[O-].CC(=O)[O-].CC(=O)[O-].CC(=O)[O-].[Mo+2].[Mo+2] | > 100 µM | > 100 µM | > 100 µM | > 100 µM | > 100 µM | > 100 µM | > 100 µM | – | > 100 µM | > 100 µM | > 100 µM | > 100 µM | > 100 µM | > 100 µM | > 100 µM | > 100 µM | > 100 µM | > 100 µM | > 100 µM | – |
| CCSc1nc(N)c2cn[nH]c2n1 | – | > 100 µM | 58.9 µM | > 100 µM | 89 µM | > 100 µM | > 100 µM | 39.6 µM | 34.3 µM | – | 35.1 µM | 35.5 µM | 33.8 µM | 20.7 µM | 32.7 µM | 13.3 µM | 33.2 µM | 42.1 µM | 7.54 µM | 7.63 µM |
| COc1c(Br)cc(Br)c(OC)c1-c1[nH]c(Br)c(Br)c1Br | 25.1 µM | 20.6 µM | 13.8 µM | 32.8 µM | 16.3 µM | 20 µM | 28.1 µM | – | 24.7 µM | – | – | 6.01 µM | – | – | – | – | – | – | – | – |
